Source: US20140050779A1, “[…]-2 INHIBITORS AND USES THEREOF” (SINGAPORE HEALTH SERVICES PTE. LTD., priority 2011, published 2014)

Tests used:
TG-2 [1] = test: TG-2 colorimetric microassay (transamidase activity) in lysate of treated mouse scleral fibroblasts; type: cell-based; conditions: for transamidase activity of endogenous cellular TG-2: mouse scleral fibroblasts, 0.1, 1, 10 and 100 μM for 5 days, concentration-dependent
Experimental: (§1) All cells used in examples described herein were between passages 2-4. Passaged cells were plated at a concentration of 2×10^5/mL into 6 well plates containing DMEM with 10% FBS. […] Old media was removed from wells and 1 mL of drug was added with fresh full medium and incubated at 37° C. Fresh drugs were replaced daily consecutively for the next 5 days to avoid oxidation. The drugs/media was removed and wells were washed twice with 1×PBS. 200 μl of RIPA lysis buffer was added per well and incubated for 5 minutes and cells were scrapped into an eppendorf tube. The cells were stored at −20° C. until sonication. The cells were sonicated on ice thrice at 20% output power for 5 seconds each time and rested 1 minute in between each turn. Cell debris was spun down at 12000 rpm for 20 minutes. The supernatant was poured into a new eppendorf tube and cell concentrations were determined using the Dc Protein assay Kit (Bio-Rad, MA). Passaged cells were plated at a concentration of 1×10^5 into 6 well plates containing DMEM with 10% FBS. […] Freshly prepared muscarinic agents' at base line, 0.1, 1, 10 and 100 μM concentrations were added for 5 days (Table 2). The culture medium was removed and fresh medium containing the same muscarinic drug added every day to avoid drug changes such as atropine oxidation. Cell lysate was collected for relative quantitative (q) PCR and protein analysis at day 5.
(§2) This assay was designed to assess the cross-linking activity of TG-2 between two proteins. TG activity was measured with TG-2 colorimetric Microassay kit (TG-Covtest, Covalab, Cambridge, UK). 150-200 μg of total protein was used per well for the TG-2 assay. Transglutaminase standards (Sigma) were used as a positive control. EDTA was used to inhibit the enzyme activity as a negative control.
(§3) The approximate volume of reagents to use, the wavelengths to use to read absorbance, the incubation times were determined from a previous study that have carried out experiments with similar principles as described in Perez Alea M, Kitamura M, Martin G, Thomas V, Hitomi K, El Alaoui S., “Development of an isoenzyme-specific colorimetric assay for tissue transglutaminase 2 cross-linking activity”, Anal Biochem. 2009 Jun. 15; 389(2):150-6, Epub 2009 March 24. All reagents used and protein coated plates were part of the kit. Biotin cadaverine was reconstituted with 6 ml of deionized water and 90 μl was added into each well of the 96 well plate that comes coated with CBZ-GLN-GLY. The rest of the steps were followed as in the manufacturer's instructions and finally absorbance was read at 450 nm using a microplate reader (TECAN, Austria). All incubations were performed with gentle shaking on a laboratory orbital shaker.
(§4) The TG-2 colorimetric assay serves as a high throughput and quantitative assay to assess transamidase activity. […] In vivo studies with these drugs were also conducted to determine the effect on myopia development (see FIGS. 14 and 15).

TG-2 [2] = test: TG-2 colorimetric microassay (transamidase activity) in lysate of treated human scleral fibroblasts; type: cell-based; conditions: for transamidase activity of endogenous cellular TG-2: human scleral fibroblasts, 0.1, 1, 10 and 100 μM for 5 days, concentration-dependent
Experimental: as §1, §2, §3, §4

[3] = tested on: mouse eyes treated with −15D spectacle lens; test: spectacle lens-induced myopia in mice, axial length and refractive error; type: in vivo; conditions: lens with 0.1% drug; for axial length: 2 weeks and 4 weeks, vs lens treated eyes; for refractive error: infrared photorefractor
Experimental: Topical applications were administered to both eyes at the same time each day (approximately 9:00 AM) commencing on the 12th day (initiation of spectacle lens treatment). A compatible drug level was determined prior to the in vivo use in a tissue culture study with mouse scleral fibroblasts. […] This treatment schedule continued for four weeks starting on post-natal day 12 continued until post-natal day 42. All measurements were taken at post-natal day 42, the equivalent of 4 weeks of spectacle lens wear.
Each eye was refracted every week to measure the refractive error using automated infrared photorefraction as described in Barathi, V. A., Beuerman, R. W., Schaeffel, F., 2009a, “Effects of unilateral topical atropine on binocular pupil responses and eye growth in mice”, Vision Res 49, 383-387. By using Optical Low Coherence Interferometry (OLCI, AC Master, Carl-Zeiss), the axial length of the eye was measured in-vivo as described in Yin G C, Gentle A, McBrien N A, “Muscarinic antagonist control of myopia: a molecular search for the M1 receptor in chick”, Mol. Vis. 2004; 13(10):787-93 and Barathi, V. A., Boopathi, V. G., Yap, E. P., Beuerman, R. W., 2008, “Two models of experimental myopia in the mouse”, Vision Res 48, 904-916. […] Differences of refractive power and axial length between eyes were calculated. Independent t-tests were used to compare experimental and control eyes in wild type and TGM2-deleted or M1-M5 mutant mice.
Right eyes were experimental and left eyes served as contra-lateral control. In vivo axial length was measured at 2 weeks and 4 weeks after treatment. […] Automated infrared photorefractor was used to measure the refractive error measurements.

TG-2 [4] = test: Western blot of TG proteins in mouse scleral fibroblasts after muscarinic agents; type: cell-based; conditions: very low concentrations
Experimental: (§5) All cells used in examples described herein were between passages 2-4. Passaged cells were plated at a concentration of 2×10^5/mL into 6 well plates containing DMEM with 10% FBS. The cells were seen to attach to the bottom of the culture wells after 4 hours. Old media was removed from wells and 1 mL of drug was added with fresh full medium and incubated at 37° C. Fresh drugs were replaced daily consecutively for the next 5 days to avoid oxidation. The drugs/media was removed and wells were washed twice with 1×PBS. 200 μl of RIPA lysis buffer was added per well and incubated for 5 minutes and cells were scrapped into an eppendorf tube. The cells were stored at −20° C. until sonication. The cells were sonicated on ice thrice at 20% output power for 5 seconds each time and rested 1 minute in between each turn. Cell debris was spun down at 12000 rpm for 20 minutes. The supernatant was poured into a new eppendorf tube and cell concentrations were determined using the Dc Protein assay Kit (Bio-Rad, MA). Passaged cells were plated at a concentration of 1×10^5 into 6 well plates containing DMEM with 10% FBS. The cells were seen to attach to the bottom of the culture wells after 4 hours. Freshly prepared muscarinic agents' at base line, 0.1, 1, 10 and 100 μM concentrations were added for 5 days (Table 2). The culture medium was removed and fresh medium containing the same muscarinic drug added every day to avoid drug changes such as atropine oxidation. Cell lysate was collected for relative quantitative (q) PCR and protein analysis at day 5.
(§6) The cells were lysed by sonification in 1×RIPA lysis buffer (santa cruz biotechnology, Sc-24948) with 10 μl PMSF solution, 10 μl sodium orthovanadate solution and 20 μl protease inhibitor cocktail solution. After centrifugation at 20,000×g at 4° C. for 20 minutes, and the supernatant collected. The protein content in the supernatants was measured using the DC Protein Assay kit (Bio-Rad, MA) following the manufacturer's instructions. Samples were stored at −80° C. until assayed.
(§7) The mouse and human scleral fibroblasts were treated with atropine or carbachol at 0.01, 0.1, 1, 5 and 10 μM concentrations for 5 days. Following 5 days of treatment, the total cellular protein was extracted from these cells and TG proteins detected via Western blot analysis.
Human and, mouse scleral fibroblast proteins in the supernatant were separated by SDS-PAGE, transferred to nitrocellulose membranes, blocked in 5% BSA in TBST (10 mM Tris-HCl [pH 8.0], 150 mM NaCl, and […] Tween-20) for 2 hours at room temperature, and incubated with the same anti-TG-2 antibody described herein at a dilution of 1:1000 and anti β-tubulin antibodies used as a positive control, for 1 hour at room temperature. The membranes were washed 3 times in TBST and incubated with HRP-conjugated secondary antibody (Chemicon International) at a dilution of 1:2500 for 1 hour at room temperature. Immunoreactive bands were visualized using the enhanced chemiluminescence method (GE Healthcare, Buckinghamshire, UK). The membrane was wrapped in plastic and placed against an X-ray film to expose for an appropriate length of time (30 seconds-5 minutes).

TG-2 [5] = test: Western blot of TG proteins in human scleral fibroblasts after muscarinic agents; type: cell-based; conditions: very low concentrations
Experimental: as §5, §6, §7
Human and, mouse scleral fibroblast proteins in the supernatant were separated by SDS-PAGE, transferred to nitrocellulose membranes, blocked in 5% BSA in TBST (10 mM Tris-HCl [pH 8.0], 150 mM NaCl, and […] Tween-20) for 2 hours at room temperature, and incubated with the same anti-TG-2 antibody described herein at a dilution of 1:1000 and anti β-tubulin antibodies used as a positive control, for 1 hour at room temperature. […]

cultured SF cells = test: effect of TG-2 inhibitors on cultured scleral fibroblast growth (XCELLigence); type: cell-based; conditions: for SF cell growth and cell numbers: 0.1 μM, 5 days; for SF cell growth and cell numbers at higher concentrations: above 0.1 μM, concentration dependent manner
Experimental: To test the effect of TG-2 inhibitors on cultured scleral fibroblast growth, cultured SF cells at passage 4 were treated with TG-2 inhibitors at baseline, 0.1, 1, 10 and 100 μM for 5 days. The SF cell growth was monitored by XCELLigence cell impedance.

Row | Molecule | transamidase activity of endogenous cellular TG-2 (TG-2 [1]) | transamidase activity of endogenous cellular TG-2 (TG-2 [2]) | axial length [3] | refractive error [3] | TG-2 protein level (reduction) (TG-2 [4]) | TG-2 protein level (reduction) (TG-2 [5]) | SF cell growth and cell numbers (cultured SF cells) | SF cell growth and cell numbers at higher concentrations (cultured SF cells) | also measured
1 | CCN(CC)CC1CCCCN1CC(=O)N1c2ccccc2C(=O)Nc2cccnc21 (stereo not shown) [AFDX-116] | reduced | reduced | – | – | – | – | – | – | –
2 | NC(=O)C(c1ccccc1)(c1ccccc1)[C@@H]1CCN(CCc2ccc3c(c2)CCO3)C1 [darifenacin] | reduced | reduced | significantly reduced | shifted from myopic to hyperoic | significant | significant | – | – | TG-2 activity, strongest reduction among the antagonists (TG-2 [1]; mouse scleral fibroblasts, low concentrations): most significantly reduced; TG-2 activity, strongest reduction among the antagonists (TG-2 [2]; human scleral fibroblasts, all concentrations): most significantly reduced; TG-2 activity, strongest reduction among the antagonists (TG-2 [2]; human scleral fibroblasts, low concentrations): most significantly reduced; TG-2 activity as compared to atropine (TG-2 [2]; human scleral fibroblasts, himbacine 0.1, 1, 10 & 100 μM, darifenacin 0.1, 1 & 10 μM): more significantly reduced
3 | C[N+]1(C)CCC(OC(=O)C(c2ccccc2)c2ccccc2)CC1.[I-] [4-DAMP, 1,1-Dimethyl-4-diphenylacetoxypiperidinium iodide] | reduced | reduced | significantly reduced | shifted from myopic to hyperoic | significant | significant | – | – | –
4 | TAMRA-DON [R002] | – | – | – | – | – | – | significantly reduced | further reduced | –
5 | CN1CCN(CC(=O)N2c3ccccc3C(=O)Nc3cccnc32)CC1 [pirenzepine] | reduced | reduced | – | – | – | – | – | – | –
6 | CC(=O)CSc1n(C)cc[n+]1C.[Cl-] [D003] | – | – | – | – | – | – | significantly reduced | further reduced | cell morphology (cultured SF cells): No change
